Laboratory results reported in ChEMBL document CHEMBL3991601, “The target landscape of clinical kinase drugs” (Science, 2017).
Active and inactive are the calls of the source. Cut-off read from the data, not from the text of the source, for most assays here: actives have a measured Kd and inactives only a lower limit.

Tests used:
[1] = target: T1, Breakpoint cluster region protein (Homo sapiens, UniProt P11274)
T1 sequence (P11274 whole entry): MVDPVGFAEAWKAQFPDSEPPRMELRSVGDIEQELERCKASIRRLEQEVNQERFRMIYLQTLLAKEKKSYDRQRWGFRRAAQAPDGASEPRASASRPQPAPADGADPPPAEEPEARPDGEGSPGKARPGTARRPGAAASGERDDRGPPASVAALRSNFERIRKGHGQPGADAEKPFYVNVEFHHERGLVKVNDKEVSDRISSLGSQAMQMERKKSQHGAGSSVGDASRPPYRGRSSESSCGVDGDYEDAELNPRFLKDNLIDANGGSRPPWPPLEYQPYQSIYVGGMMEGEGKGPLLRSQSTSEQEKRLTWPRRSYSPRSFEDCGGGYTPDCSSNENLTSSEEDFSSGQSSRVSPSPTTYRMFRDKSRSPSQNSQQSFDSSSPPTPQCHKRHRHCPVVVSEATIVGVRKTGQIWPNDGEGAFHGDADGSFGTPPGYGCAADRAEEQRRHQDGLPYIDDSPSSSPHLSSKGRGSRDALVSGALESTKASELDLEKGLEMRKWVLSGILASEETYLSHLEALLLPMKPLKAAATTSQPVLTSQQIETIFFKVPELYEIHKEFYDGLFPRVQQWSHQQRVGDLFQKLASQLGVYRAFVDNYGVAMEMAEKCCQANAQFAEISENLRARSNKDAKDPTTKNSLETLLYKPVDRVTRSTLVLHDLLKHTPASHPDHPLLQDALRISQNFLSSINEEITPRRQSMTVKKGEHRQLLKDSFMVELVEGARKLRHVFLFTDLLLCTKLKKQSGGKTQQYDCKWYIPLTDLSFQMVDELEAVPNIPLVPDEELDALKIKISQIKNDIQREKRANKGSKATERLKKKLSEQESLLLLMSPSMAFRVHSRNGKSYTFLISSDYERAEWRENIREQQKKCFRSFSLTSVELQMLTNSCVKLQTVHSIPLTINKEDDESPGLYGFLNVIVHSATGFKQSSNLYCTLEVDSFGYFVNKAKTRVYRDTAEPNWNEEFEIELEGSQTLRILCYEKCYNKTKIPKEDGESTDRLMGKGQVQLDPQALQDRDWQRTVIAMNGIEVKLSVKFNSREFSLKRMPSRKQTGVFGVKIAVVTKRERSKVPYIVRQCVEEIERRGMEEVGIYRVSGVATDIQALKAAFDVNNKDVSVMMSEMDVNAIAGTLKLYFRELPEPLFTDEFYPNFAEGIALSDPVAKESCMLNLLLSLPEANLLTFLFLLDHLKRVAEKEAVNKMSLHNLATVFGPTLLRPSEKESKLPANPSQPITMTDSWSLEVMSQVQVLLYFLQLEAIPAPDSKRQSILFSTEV

Scaffold protein ILK = target: T2, Scaffold protein ILK (Homo sapiens, UniProt Q13418)
T2 sequence (Q13418 whole entry): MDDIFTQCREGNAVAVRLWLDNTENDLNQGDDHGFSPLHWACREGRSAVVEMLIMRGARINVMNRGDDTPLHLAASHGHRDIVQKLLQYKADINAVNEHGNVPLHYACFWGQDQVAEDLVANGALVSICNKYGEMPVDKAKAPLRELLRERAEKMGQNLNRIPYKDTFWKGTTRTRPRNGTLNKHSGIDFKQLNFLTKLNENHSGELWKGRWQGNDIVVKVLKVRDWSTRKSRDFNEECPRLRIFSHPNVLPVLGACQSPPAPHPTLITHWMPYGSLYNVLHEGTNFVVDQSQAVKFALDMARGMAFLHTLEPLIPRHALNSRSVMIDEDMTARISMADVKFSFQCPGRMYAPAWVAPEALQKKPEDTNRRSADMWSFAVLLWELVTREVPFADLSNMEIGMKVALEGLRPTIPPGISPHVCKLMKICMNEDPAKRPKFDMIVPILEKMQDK

[2] = target: T3, General transcription and DNA repair factor IIH helicase subunit XPD (Homo sapiens, UniProt P18074); details: read-out: Kd apparent; k-562, colo 205, sk-n-be(2) and mv-4-11
T3 sequence (P18074 whole entry): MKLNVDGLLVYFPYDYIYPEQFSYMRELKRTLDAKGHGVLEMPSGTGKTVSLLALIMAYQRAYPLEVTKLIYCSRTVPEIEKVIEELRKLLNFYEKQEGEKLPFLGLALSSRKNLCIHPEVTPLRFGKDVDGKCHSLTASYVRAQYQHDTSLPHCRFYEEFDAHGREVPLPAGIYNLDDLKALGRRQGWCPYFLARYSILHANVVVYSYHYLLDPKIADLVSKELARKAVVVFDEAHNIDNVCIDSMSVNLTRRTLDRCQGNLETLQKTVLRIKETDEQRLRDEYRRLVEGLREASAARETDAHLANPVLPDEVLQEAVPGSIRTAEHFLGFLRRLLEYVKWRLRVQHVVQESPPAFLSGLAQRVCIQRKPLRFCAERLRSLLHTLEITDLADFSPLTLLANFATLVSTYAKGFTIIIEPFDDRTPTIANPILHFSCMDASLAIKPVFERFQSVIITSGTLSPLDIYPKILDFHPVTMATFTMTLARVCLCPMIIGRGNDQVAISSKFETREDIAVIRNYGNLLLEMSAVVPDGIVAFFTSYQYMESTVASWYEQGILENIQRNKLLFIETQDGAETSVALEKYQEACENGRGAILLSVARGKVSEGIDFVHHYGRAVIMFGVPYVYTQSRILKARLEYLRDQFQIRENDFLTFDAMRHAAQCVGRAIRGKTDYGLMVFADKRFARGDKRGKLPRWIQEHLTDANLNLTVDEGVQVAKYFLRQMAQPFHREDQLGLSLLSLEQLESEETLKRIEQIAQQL
Note: in the data inactive means no Kd found up to 30 µM.

With `O=C(NOCCO)c1cc(CN2OCCCC2=O)c(F)c(F)c1Nc1ccc(I)cc1F` [RO-4987655] the Kd [1] was > 30 µM (inactive), the Kd (Scaffold protein ILK) was > 30 µM (inactive) and the Kd [2] was > 30 µM (inactive).

In the case of `NC(=O)c1c(OCc2c(F)cc(Br)cc2F)nsc1NC(=O)NCCCCN1CCCC1` [OSI-632], the Kd [1] is reported as 2.6 µM (active), the Kd (Scaffold protein ILK) is reported as > 30 µM (inactive) and the Kd [2] is reported as > 30 µM (inactive).

For `O=C(Nc1c[nH]nc1-c1nc2cc(CN3CCOCC3)ccc2[nH]1)NC1CC1` [AT-9283], the Kd [1] was 0.156 µM (active), the Kd (Scaffold protein ILK) was > 30 µM (inactive) and the Kd [2] was > 30 µM (inactive).

In the case of `CCn1c(C(=O)N(C2CC2)C2CC2)cc2c3c(ncn3C)c(Nc3cc(C)n(C)n3)nc21` [BMS-911543], the Kd [1] is reported as > 30 µM (inactive), the Kd (Scaffold protein ILK) is reported as > 30 µM (inactive) and the Kd [2] is reported as > 30 µM (inactive).

For `FC(F)(F)c1ccc(/C=C/c2nc(COc3ccc(CCCCn4ccnn4)cc3)co2)cc1` [MUBRITINIB], the Kd [1] was > 30 µM (inactive), the Kd (Scaffold protein ILK) was > 30 µM (inactive) and the Kd [2] was > 30 µM (inactive).
